Experimental data published in EP4722207A1, “OXOISOINDOLINYL-SUBSTITUTED TETRAHYDROPYRIMIDINEDIONE DERIVATIVE AND USE THEREOF” (Gluetacs Therapeutics (Shanghai) Co., Ltd., priority 2023, dated 2024).

Key:
Type in all cases: cell-based
WEE1 = biological target: T1, WEE1 (Homo sapiens, UniProt P30291+Q96SW2); assay: Western-blot assay, substrate protein degradation in hPBMCs: WEE1; details: for substrate protein remaining % WEE1: 24 hours of compound treatment, 50 nM and 500 nM; for WEE1 substrate protein remaining %: compounds at 50 nM and 500 nM, 24 hours
T1 construct: effects of the compounds of the present disclosure on the expression of target proteins in cells; endogenous in cells; host or cells: human PBMCs (hPBMCs)
T1 sequence (P30291 whole entry): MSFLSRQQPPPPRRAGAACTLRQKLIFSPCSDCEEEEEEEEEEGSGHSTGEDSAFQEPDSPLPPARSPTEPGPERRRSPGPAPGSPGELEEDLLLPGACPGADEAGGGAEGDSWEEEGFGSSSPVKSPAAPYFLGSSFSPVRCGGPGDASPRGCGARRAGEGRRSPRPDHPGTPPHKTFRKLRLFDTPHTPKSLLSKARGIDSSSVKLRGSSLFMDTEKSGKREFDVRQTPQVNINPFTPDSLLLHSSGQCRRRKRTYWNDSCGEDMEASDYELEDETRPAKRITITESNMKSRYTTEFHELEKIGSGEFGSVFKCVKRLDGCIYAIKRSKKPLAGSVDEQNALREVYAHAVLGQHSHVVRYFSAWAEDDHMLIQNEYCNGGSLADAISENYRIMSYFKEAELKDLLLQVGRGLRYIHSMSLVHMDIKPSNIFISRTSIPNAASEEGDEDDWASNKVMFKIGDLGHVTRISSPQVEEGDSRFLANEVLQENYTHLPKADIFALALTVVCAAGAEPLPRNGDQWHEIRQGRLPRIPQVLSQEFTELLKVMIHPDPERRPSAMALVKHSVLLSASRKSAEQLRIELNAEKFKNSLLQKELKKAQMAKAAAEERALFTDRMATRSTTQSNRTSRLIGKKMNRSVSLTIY
T1 sequence (Q96SW2 whole entry): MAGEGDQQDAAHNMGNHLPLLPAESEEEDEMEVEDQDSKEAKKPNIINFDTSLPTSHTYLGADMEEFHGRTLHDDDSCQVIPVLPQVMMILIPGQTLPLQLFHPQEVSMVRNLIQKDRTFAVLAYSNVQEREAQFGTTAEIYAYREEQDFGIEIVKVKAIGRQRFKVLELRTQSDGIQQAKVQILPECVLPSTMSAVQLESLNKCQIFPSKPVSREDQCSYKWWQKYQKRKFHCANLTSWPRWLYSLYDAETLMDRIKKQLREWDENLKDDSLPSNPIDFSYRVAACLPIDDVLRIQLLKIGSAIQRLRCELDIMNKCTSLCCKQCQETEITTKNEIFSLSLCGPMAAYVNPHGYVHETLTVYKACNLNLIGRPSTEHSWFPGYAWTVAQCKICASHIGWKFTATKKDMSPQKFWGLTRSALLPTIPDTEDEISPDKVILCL
T1 sequence (Q16531 whole entry partner): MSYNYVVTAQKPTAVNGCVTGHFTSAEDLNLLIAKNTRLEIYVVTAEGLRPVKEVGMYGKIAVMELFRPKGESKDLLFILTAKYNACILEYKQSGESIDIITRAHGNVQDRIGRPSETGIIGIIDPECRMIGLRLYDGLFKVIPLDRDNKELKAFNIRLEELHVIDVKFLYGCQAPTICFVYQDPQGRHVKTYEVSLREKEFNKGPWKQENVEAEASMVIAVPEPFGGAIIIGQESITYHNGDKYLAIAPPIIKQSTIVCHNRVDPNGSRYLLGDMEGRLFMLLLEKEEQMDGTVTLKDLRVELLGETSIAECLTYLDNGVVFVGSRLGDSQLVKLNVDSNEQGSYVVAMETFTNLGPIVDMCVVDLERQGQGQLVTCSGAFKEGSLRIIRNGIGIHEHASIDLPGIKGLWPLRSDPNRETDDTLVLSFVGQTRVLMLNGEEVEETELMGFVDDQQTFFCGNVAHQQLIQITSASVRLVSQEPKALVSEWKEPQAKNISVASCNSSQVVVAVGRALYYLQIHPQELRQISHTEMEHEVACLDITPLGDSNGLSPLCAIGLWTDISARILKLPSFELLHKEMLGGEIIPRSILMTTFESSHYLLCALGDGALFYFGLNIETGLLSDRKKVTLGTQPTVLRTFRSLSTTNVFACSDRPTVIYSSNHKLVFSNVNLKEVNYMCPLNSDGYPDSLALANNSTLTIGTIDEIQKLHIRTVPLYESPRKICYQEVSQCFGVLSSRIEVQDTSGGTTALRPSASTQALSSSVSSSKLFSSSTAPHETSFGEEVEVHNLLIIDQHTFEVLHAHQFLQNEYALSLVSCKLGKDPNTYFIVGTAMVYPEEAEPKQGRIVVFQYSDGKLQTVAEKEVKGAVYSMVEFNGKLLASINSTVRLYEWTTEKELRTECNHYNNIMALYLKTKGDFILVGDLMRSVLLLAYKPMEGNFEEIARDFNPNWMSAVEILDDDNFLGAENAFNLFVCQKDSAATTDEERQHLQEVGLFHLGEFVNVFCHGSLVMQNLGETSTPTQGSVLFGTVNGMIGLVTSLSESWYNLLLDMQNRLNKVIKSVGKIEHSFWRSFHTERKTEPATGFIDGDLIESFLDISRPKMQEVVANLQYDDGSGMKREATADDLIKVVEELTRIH

IKZF1 = biological target: T2, IKZF1 (Homo sapiens, UniProt Q13422+Q96SW2); assay: Western-blot assay, substrate protein degradation in hPBMCs: IKZF1; details: for substrate protein remaining % IKZF1: 24 hours of compound treatment, 50 nM and 500 nM; for IKZF1 substrate protein remaining %: compounds at 50 nM and 500 nM, 24 hours
T2 construct: effects of the compounds of the present disclosure on the expression of target proteins in cells; endogenous in cells; host or cells: human PBMCs (hPBMCs)
T2 sequence (Q13422 whole entry): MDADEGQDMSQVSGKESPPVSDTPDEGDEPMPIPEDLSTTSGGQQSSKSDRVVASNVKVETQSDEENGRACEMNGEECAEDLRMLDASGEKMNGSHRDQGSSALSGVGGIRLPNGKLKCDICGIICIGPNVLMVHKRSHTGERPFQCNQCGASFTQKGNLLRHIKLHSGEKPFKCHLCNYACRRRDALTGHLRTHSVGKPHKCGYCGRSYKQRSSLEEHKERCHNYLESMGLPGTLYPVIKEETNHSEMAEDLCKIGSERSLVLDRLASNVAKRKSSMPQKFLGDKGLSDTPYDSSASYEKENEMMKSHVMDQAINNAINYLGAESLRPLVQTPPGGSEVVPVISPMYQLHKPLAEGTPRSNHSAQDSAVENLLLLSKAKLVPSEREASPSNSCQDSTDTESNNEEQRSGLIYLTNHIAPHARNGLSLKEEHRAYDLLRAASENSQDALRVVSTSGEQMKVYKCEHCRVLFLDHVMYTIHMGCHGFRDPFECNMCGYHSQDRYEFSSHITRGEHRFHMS
T2 sequence (Q96SW2 whole entry): as the sequence (Q96SW2 whole entry) above
T2 sequence (Q16531 whole entry partner): as the sequence (Q16531 whole entry partner) above

IKZF2 = biological target: T3, IKZF2 (Homo sapiens, UniProt Q96SW2+Q9UKS7); assay: Western-blot assay, substrate protein degradation in hPBMCs: IKZF2; details: for substrate protein remaining % IKZF2: 24 hours of compound treatment, 50 nM and 500 nM; for IKZF2 substrate protein remaining %: compounds at 50 nM and 500 nM, 24 hours
T3 construct: effects of the compounds of the present disclosure on the expression of target proteins in cells; endogenous in cells; host or cells: human PBMCs (hPBMCs)
T3 sequence (Q9UKS7 whole entry): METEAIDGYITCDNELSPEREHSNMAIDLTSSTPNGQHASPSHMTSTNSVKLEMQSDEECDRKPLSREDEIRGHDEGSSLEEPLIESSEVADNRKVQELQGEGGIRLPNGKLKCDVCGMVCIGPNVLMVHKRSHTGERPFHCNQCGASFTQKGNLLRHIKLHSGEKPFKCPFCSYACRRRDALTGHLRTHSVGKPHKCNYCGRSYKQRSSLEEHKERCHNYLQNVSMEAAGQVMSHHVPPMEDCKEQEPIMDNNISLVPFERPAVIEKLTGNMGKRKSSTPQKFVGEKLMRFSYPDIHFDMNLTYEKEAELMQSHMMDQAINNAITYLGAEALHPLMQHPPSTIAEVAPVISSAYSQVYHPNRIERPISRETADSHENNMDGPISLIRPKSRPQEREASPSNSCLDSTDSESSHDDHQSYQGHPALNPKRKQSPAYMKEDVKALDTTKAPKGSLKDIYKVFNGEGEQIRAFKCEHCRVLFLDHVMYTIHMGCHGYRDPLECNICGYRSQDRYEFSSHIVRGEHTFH
T3 sequence (Q96SW2 whole entry): as the sequence (Q96SW2 whole entry) above
T3 sequence (Q16531 whole entry partner): as the sequence (Q16531 whole entry partner) above

IKZF3 = biological target: T4, IKZF3 (Homo sapiens, UniProt Q96SW2+Q9UKT9); assay: Western-blot assay, substrate protein degradation in hPBMCs: IKZF3; details: for substrate protein remaining % IKZF3: 24 hours of compound treatment, 50 nM and 500 nM; for IKZF3 substrate protein remaining %: compounds at 50 nM and 500 nM, 24 hours
T4 construct: effects of the compounds of the present disclosure on the expression of target proteins in cells; endogenous in cells; host or cells: human PBMCs (hPBMCs)
T4 sequence (Q9UKT9 whole entry): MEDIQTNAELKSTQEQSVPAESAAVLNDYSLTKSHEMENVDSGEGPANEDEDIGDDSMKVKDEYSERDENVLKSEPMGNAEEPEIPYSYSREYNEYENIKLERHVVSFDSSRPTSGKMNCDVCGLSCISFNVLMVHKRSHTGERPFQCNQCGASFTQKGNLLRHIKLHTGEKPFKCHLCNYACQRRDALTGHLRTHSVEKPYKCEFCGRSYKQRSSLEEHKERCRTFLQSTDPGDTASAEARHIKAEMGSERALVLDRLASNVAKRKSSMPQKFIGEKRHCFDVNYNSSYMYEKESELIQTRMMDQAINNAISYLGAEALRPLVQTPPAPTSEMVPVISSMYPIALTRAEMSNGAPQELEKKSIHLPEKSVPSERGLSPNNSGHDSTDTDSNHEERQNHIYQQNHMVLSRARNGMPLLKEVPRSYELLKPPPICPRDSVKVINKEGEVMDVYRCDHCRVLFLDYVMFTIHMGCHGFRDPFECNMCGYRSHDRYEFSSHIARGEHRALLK
T4 sequence (Q96SW2 whole entry): as the sequence (Q96SW2 whole entry) above
T4 sequence (Q16531 whole entry partner): as the sequence (Q16531 whole entry partner) above

CK1α = biological target: T5, CK1α (Homo sapiens, UniProt P48729+Q96SW2); assay: Western-blot assay, substrate protein degradation in hPBMCs: CK1α; details: for substrate protein remaining % CK1α: 24 hours of compound treatment, 50 nM and 500 nM; for CK1α substrate protein remaining %: compounds at 50 nM and 500 nM, 24 hours
T5 construct: effects of the compounds of the present disclosure on the expression of target proteins in cells; endogenous in cells; host or cells: human PBMCs (hPBMCs)

GSPT1 = biological target: T6, GSPT1 (Homo sapiens, UniProt P15170+Q96SW2); assay: Western-blot assay, substrate protein degradation in hPBMCs: GSPT1; details: for substrate protein remaining % GSPT1: 24 hours of compound treatment, 50 nM and 500 nM; for GSPT1 substrate protein remaining %: compounds at 50 nM and 500 nM, 24 hours
T6 construct: effects of the compounds of the present disclosure on the expression of target proteins in cells; endogenous in cells; host or cells: human PBMCs (hPBMCs)
T6 sequence (P15170 whole entry): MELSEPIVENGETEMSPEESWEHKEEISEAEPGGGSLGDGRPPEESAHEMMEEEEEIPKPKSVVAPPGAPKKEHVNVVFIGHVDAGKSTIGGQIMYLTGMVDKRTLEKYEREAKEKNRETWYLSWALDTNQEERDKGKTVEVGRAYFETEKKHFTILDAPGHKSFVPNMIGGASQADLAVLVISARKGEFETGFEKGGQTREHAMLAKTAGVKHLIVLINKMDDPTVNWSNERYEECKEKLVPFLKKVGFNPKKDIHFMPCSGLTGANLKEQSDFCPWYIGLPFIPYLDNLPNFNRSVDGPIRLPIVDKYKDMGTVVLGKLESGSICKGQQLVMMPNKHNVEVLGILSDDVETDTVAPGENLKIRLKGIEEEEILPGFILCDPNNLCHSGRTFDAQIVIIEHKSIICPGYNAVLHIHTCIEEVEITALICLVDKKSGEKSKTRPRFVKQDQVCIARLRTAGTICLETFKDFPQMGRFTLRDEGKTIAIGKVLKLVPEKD
T6 sequence (Q96SW2 whole entry): as the sequence (Q96SW2 whole entry) above
T6 sequence (Q16531 whole entry partner): as the sequence (Q16531 whole entry partner) above

Compound	substrate protein remaining % WEE1 (WEE1)	substrate protein remaining % IKZF1 (IKZF1)	substrate protein remaining % IKZF2 (IKZF2)	substrate protein remaining % IKZF3 (IKZF3)	substrate protein remaining % CK1α (CK1α)	substrate protein remaining % GSPT1 (GSPT1)	WEE1 substrate protein remaining % (WEE1)	IKZF1 substrate protein remaining % (IKZF1)	IKZF2 substrate protein remaining % (IKZF2)	IKZF3 substrate protein remaining % (IKZF3)	CK1α substrate protein remaining % (CK1α)	GSPT1 substrate protein remaining % (GSPT1)
O=C1CCN(N2Cc3cc(CN4CCN(c5ccncc5)CC4)ccc3C2=O)C(=O)N1 [GT-05437, 1-(1-oxo-5-((4-(pyridin-4-yl)piperazin-1-yl)methyl)isoindolin-2-yl)dihydropyrimidine-2,4(1H,3H)-dione]	B (80%< substrate protein remaining %≤ 100%)	B (80%< substrate protein remaining %≤ 100%)	B (80%< substrate protein remaining %≤ 100%)	B (80%< substrate protein remaining %≤ 100%)	B (80%< substrate protein remaining %≤ 100%)	A (0% ≤ substrate protein remaining % ≤ 80%)						
Cc1cc(N2CCN(Cc3ccc4c(c3)CN(N3CCC(=O)NC3=O)C4=O)CC2)ccn1 [GT-05438, 1-(5-((4-(2-methylpyridin-4-yl)piperazin-1-yl)methyl)-1-oxoisoindolin-2-yl)dihydropyrimidine-2,4(1H,3H)-dione]	A (0% ≤ substrate protein remaining % ≤ 80%)	A (0% ≤ substrate protein remaining % ≤ 80%)	B (80%< substrate protein remaining %≤ 100%)	A (0% ≤ substrate protein remaining % ≤ 80%)	A (0% ≤ substrate protein remaining % ≤ 80%)	A (0% ≤ substrate protein remaining % ≤ 80%)						
O=C1CCN(N2Cc3cc(CN4CCN(c5ccncc5Br)CC4)ccc3C2=O)C(=O)N1 [GT-05439, 1-(5-((4-(3-bromopyridin-4-yl)piperazin-1-yl)methyl)-1-oxoisoindolin-2-yl)dihydropyrimidine-2,4(1H,3H)-dione]	A (0% ≤ substrate protein remaining % ≤ 80%)	B (80%< substrate protein remaining %≤ 100%)	B (80%< substrate protein remaining %≤ 100%)	A (0% ≤ substrate protein remaining % ≤ 80%)	A (0% ≤ substrate protein remaining % ≤ 80%)	A (0% ≤ substrate protein remaining % ≤ 80%)	A ("A" is defined as 0% ≤ substrate protein remaining % ≤ 80%)	B ("B" is defined as 80%< substrate protein remaining %≤ 100%)	B ("B" is defined as 80%< substrate protein remaining %≤ 100%)	B ("B" is defined as 80%< substrate protein remaining %≤ 100%)	B ("B" is defined as 80%< substrate protein remaining %≤ 100%)	B ("B" is defined as 80%< substrate protein remaining %≤ 100%)
O=C1CCN(N2Cc3cc(CN4CCN(c5ccncc5F)CC4)ccc3C2=O)C(=O)N1 [GT-05697, 1-(5-((4-(3-fluoropyridin-4-yl)piperazin-1-yl)methyl)-1-oxoisoindolin-2-yl)dihydropyrimidine-2,4(1H,3H)-dione]							A ("A" is defined as 0% ≤ substrate protein remaining % ≤ 80%)	B ("B" is defined as 80%< substrate protein remaining %≤ 100%)	B ("B" is defined as 80%< substrate protein remaining %≤ 100%)	B ("B" is defined as 80%< substrate protein remaining %≤ 100%)	B ("B" is defined as 80%< substrate protein remaining %≤ 100%)	A ("A" is defined as 0% ≤ substrate protein remaining % ≤ 80%)
O=C1CCN(N2Cc3cc(CN4CCN(C(c5ccccc5)c5cccnc5)CC4)ccc3C2=O)C(=O)N1 (stereo not drawn) [GT-06376, 1-(1-oxo-5-((4-(phenyl(pyridin-3-yl)methyl)piperazin-1-yl)methyl)isoindolin-2-yl)dihydropyrimidine-2,4(1H,3H)-dione]							A ("A" is defined as 0% ≤ substrate protein remaining % ≤ 80%)	B ("B" is defined as 80%< substrate protein remaining %≤ 100%)	A ("A" is defined as 0% ≤ substrate protein remaining % ≤ 80%)	B ("B" is defined as 80%< substrate protein remaining %≤ 100%)	B ("B" is defined as 80%< substrate protein remaining %≤ 100%)	A ("A" is defined as 0% ≤ substrate protein remaining % ≤ 80%)
O=C1CCN(N2C(=O)c3ccc(CN4CCN(C(c5ccccc5)c5cccnc5)CC4)cc3C2=O)C(=O)N1 (stereo not drawn) [GT-06377, 2-(2,4-dioxotetrahydropyrimidin-1(2H)-yl)-5-((4-(phenyl(pyridin-3-yl)methyl)piperazin-1-yl)methyl)isoindoline-1,3-dione]							A ("A" is defined as 0% ≤ substrate protein remaining % ≤ 80%)	B ("B" is defined as 80%< substrate protein remaining %≤ 100%)	A ("A" is defined as 0% ≤ substrate protein remaining % ≤ 80%)	B ("B" is defined as 80%< substrate protein remaining %≤ 100%)	B ("B" is defined as 80%< substrate protein remaining %≤ 100%)	B ("B" is defined as 80%< substrate protein remaining %≤ 100%)
O=C1CCN(N2C(=O)c3ccc(CN4CCN(C(c5ccccc5)c5ccncc5)CC4)cc3C2=O)C(=O)N1 (stereo not drawn) [GT-06378, 2-(2,4-dioxotetrahydropyrimidin-1(2H)-yl)-5-((4-(phenyl(pyridin-4-yl)methyl)piperazin-1-yl)methyl)isoindoline-1,3-dione]							A ("A" is defined as 0% ≤ substrate protein remaining % ≤ 80%)	B ("B" is defined as 80%< substrate protein remaining %≤ 100%)	A ("A" is defined as 0% ≤ substrate protein remaining % ≤ 80%)	A ("A" is defined as 0% ≤ substrate protein remaining % ≤ 80%)	B ("B" is defined as 80%< substrate protein remaining %≤ 100%)	B ("B" is defined as 80%< substrate protein remaining %≤ 100%)
O=C1CCN(N2C(=O)c3ccc(CN4CCN(C(c5ccccn5)c5ccccn5)CC4)cc3C2=O)C(=O)N1 [GT-06379, 5-((4-(di(pyridin-2-yl)methyl)piperazin-1-yl)methyl)-2-(2,4-dioxotetrahydropyrimidin-1(2H)-yl)isoindoline-1,3-dione]							A ("A" is defined as 0% ≤ substrate protein remaining % ≤ 80%)	B ("B" is defined as 80%< substrate protein remaining %≤ 100%)	A ("A" is defined as 0% ≤ substrate protein remaining % ≤ 80%)	A ("A" is defined as 0% ≤ substrate protein remaining % ≤ 80%)	B ("B" is defined as 80%< substrate protein remaining %≤ 100%)	A ("A" is defined as 0% ≤ substrate protein remaining % ≤ 80%)
CC1(C)CN(Cc2ccc3c(c2)C(=O)N(N2CCC(=O)NC2=O)C3=O)CCN1C(c1ccccc1)c1ccccc1 [GT-06385, 5-((4-benzhydryl-3,3-dimethylpiperazin-1-yl)methyl)-2-(2,4-dioxotetrahydropyrimidin-1(2H)-yl)isoindoline-1,3-dione]							A ("A" is defined as 0% ≤ substrate protein remaining % ≤ 80%)	B ("B" is defined as 80%< substrate protein remaining %≤ 100%)	B ("B" is defined as 80%< substrate protein remaining %≤ 100%)	A ("A" is defined as 0% ≤ substrate protein remaining % ≤ 80%)	B ("B" is defined as 80%< substrate protein remaining %≤ 100%)	A ("A" is defined as 0% ≤ substrate protein remaining % ≤ 80%)
O=C1CCN(N2Cc3cc(CN4CCC(c5nccc(Cl)c5Cl)CC4)ccc3C2=O)C(=O)N1 [GT-06388, 1-(5-((4-(3,4-dichloropyridin-2-yl)piperidin-1-yl)methyl)-1-oxoisoindolin-2-yl)dihydropyrimidine-2,4(1H,3H)-dione]							B ("B" is defined as 80%< substrate protein remaining %≤ 100%)	B ("B" is defined as 80%< substrate protein remaining %≤ 100%)	B ("B" is defined as 80%< substrate protein remaining %≤ 100%)	B ("B" is defined as 80%< substrate protein remaining %≤ 100%)	B ("B" is defined as 80%< substrate protein remaining %≤ 100%)	A ("A" is defined as 0% ≤ substrate protein remaining % ≤ 80%)
O=C1CCN(N2Cc3cc(CN4CCC(c5ccnc(Cl)c5Cl)CC4)ccc3C2=O)C(=O)N1 [GT-06390, 1-(5-((4-(2,3-dichloropyridin-4-yl)piperidin-1-yl)methyl)-1-oxoisoindolin-2-yl)dihydropyrimidine-2,4(1H,3H)-dione]							B ("B" is defined as 80%< substrate protein remaining %≤ 100%)	B ("B" is defined as 80%< substrate protein remaining %≤ 100%)	B ("B" is defined as 80%< substrate protein remaining %≤ 100%)	B ("B" is defined as 80%< substrate protein remaining %≤ 100%)	B ("B" is defined as 80%< substrate protein remaining %≤ 100%)	A ("A" is defined as 0% ≤ substrate protein remaining % ≤ 80%)
